Assay results reported in US12227494B2, “Polymorphisms of HM30181 mesylate” (ATHENEX R&D, LLC, priority 2020, dated 2025).

Assay: Polymorph screening (slurry, liquid vapor diffusion, cooling, evaporation, anti-solvent, large scale) with crystal type by XRPD
Format: physicochemical
Conditions: for Observations: large scale (200 mg)
Description: Slurry-based generation and/or screening for HM30181 mesylate polymorphs was performed by preparing slurries of starting material HM30181 mesylate Type A in a variety of solvents and under a variety of conditions as described below. The resulting solids were analyzed by XRPD and identified for physical state.
Generation and/or screening of HM30181 mesylate polymorphs was also performed by preparing HM30181 mesylate Type A starting material for liquid and solid vapor diffusion as described below. Resulting solids were analyzed by XRPD and identified for physical state. Liquid vapor diffusion of MTBE into NMP solution yielded HM30181 mesylate Type D (see FIG. 21). Liquid vapor diffusion of MEK into NMP or DMA solution yielded HM30181 mesylate Type D (see FIG. 21). […] Liquid vapor diffusion of 2-MeTHF into DMA or DMF solution yielded HM30181 mesylate Type E (see FIG. 22). Liquid vapor diffusion of MTBE into DMA solution yielded HM30181 mesylate Type E, with a few additional diffraction peaks, which Inventors believe are attributable to HM30181 mesylate Type I (see FIGS. 4 to 8). Liquid vapor diffusion of ACN into DMSO solution yielded HM30181 mesylate Type H (see FIG. 23). Liquid vapor diffusion of Acetone, Ethyl Acetate, or isopropyl acetate into DMA solution yielded HM30181 mesylate Type I (see FIG. 24).
Generation and/or screening of HM30181 mesylate polymorphs by cooling was carried out by treating HM30181 mesylate Type A starting material using gradual or rapid (i.e. crash) cooling as described below. The resulting solids were analyzed by XRPD and identified for physical state.
HM30181 mesylate was also subjected to evaporation methods by treating HM30181 mesylate Type A starting material as described below. The resulting solids were analyzed by XRPD and identified for physical state.
Generation and/or screening of HM30181 mesylate polymorphs by treatment with anti-solvents was performed by treating HM30181 mesylate Type A starting material as described below. The resulting solids were analyzed by XRPD and identified for physical state. Anti-solvent studies in DMSO yielded HM30181 mesylate Type C (see FIG. 26). Anti-solvent studies in N,N-dimethylacetamide with methyl t-butyl ether yielded a HM30181 mesylate Type F polymorphism (see FIG. 27). Anti-solvent addition and reverse anti-solvent addition in DMSO/EtOAc, DMA/MIBK, DMA/toluene and NMP/t-BuOH yielded primarily amorphous content and a polymorphism with some similarity to HM30181 mesylate Type J (see FIG. 28). Other anti-solvent studies in DMSO and DMF yielded a HM30181 mesylate Type K polymorphism (or possibly a mixture of types, see FIG. 29). Anti-solvent experiments in DMF/n-propanol and DMA/isopropanol yielded a HM30181 mesylate Type L polymorphism (see FIG. 30). Anti-solvent addition DMF/Toluene and DMA/t-BuOH were mostly amorphous, but also generated HM30181 mesylate Type M (see FIG. 31).
Large scale studies were performed with HM30181 mesylate Type A starting material on a 200 mg scale as described below. Solids were isolated by vacuum filtration. The wet cakes from filtration from DMA, DMF, and NMP slurries were washed with 1 mL to 2 mL methanol to remove solvents. Solids were then vacuum dried at 80° C. overnight.
Screening of polymorphisms of HM30181 mesylate can include preparation of a slurry. Typically, a slurry was prepared by suspending 5 mg to 20 mg of sample in 0.1 mL to 0.5 mL solvent in a 1.5 mL or 3.0 mL glass vial. The suspension a was stirred at target temperature (e.g. 4° C., ambient temperature, 50° C.) at 200 rpm. Solids for X-ray powder diffraction (XRPD) analysis were separated by centrifuging at 14,000 rpm for 5 minutes at ambient temperature. If no solid or gel is obtained, the slurry can be move to a fume hood for evaporation of the solvent.
In some embodiments anti-solvent addition was used. […]

SMILES: COc1cc2c(cc1OC)CN(CCc1ccc(-n3nnc(-c4cc(OC)c(OC)cc4NC(=O)c4cc(=O)c5ccccc5o4)n3)cc1)CC2.CS(=O)(=O)O [HM30181 mesylate Type A, HM30181 mesylate]
- XRPD (wet cake) (Crash Cooling 50° C.-->−20° C., CHCl3 4 mL, API 25.4 mg, Exp. 6007235-17-C10): No solids
- XRPD (wet cake) (Crash Cooling 50° C.-->−20° C., DCM 10 mL, API 22.1 mg, Exp. 6007235-17-C13): No solids
- XRPD (wet cake) (Crash Cooling 50° C.-->−20° C., DMA 4 mL, API 26.9 mg, Exp. 6007235-17-C15): Amorphous
- XRPD (wet cake) (Crash Cooling 50° C.-->−20° C., DMF 4 mL, API 25.1 mg, Exp. 6007235-17-C16): Amorphous
- XRPD (wet cake) (Crash Cooling 50° C.-->−20° C., EtOH 20 mL, API 5 mg, Exp. 6007235-17-C11): No solids
- XRPD (wet cake) (Crash Cooling 50° C.-->−20° C., MeOH 10 mL, API 22.9 mg, Exp. 6007235-17-C9): No solids
- XRPD (wet cake) (Crash Cooling 50° C.-->−20° C., NMP 4 mL, API 26.2 mg, Exp. 6007235-17-C14): Amorphous
- XRPD (wet cake) (Crash cooling 50° C.-->−20° C., ACN 10 mL, API 12.6 mg, Exp. 6007235-17-C12): Type C
- XRPD (wet cake) (Slow Cooling 50° C.-->4° C., ACN 10 mL, API 12.6 mg, Exp. 6007235-17-C4): Type C
- XRPD (wet cake) (Slow Cooling 50° C.-->4° C., DMF 4 mL, API 25.1 mg, Exp. 6007235-17-C8): No solids
- XRPD (wet cake) (Slow Cooling 50° C.-->4° C., EtOH 20 mL, API 5 mg, Exp. 6007235-17-C3): No solids
- XRPD (wet cake) (Slow Cooling 50° C.-->4° C., MeOH 20 mL, API 24.7 mg, Exp. 6007235-17-C1): No solids
- XRPD (wet cake) (Slow Cooling 50° C.-->4° C., NMP 4 mL, API 20.9 mg, Exp. 6007235-17-C6): No solids
- Identification (anti-solvent (Table 13), solvent CHCl3, anti-solvent EtOH 10 mL, NB 6004273-06-A102): Type A
- Identification (anti-solvent (Table 13), solvent CHCl3, anti-solvent MTBE 10 mL, NB 6004273-06-A103): Type A
- Identification (anti-solvent (Table 13), solvent CHCl3, anti-solvent n-Heptane 10 mL, NB 6004273-06-A104): Type A
- Identification (anti-solvent (Table 13), solvent DMSO, anti-solvent Toluene 10 mL, NB 6004273-06-A106): Amorphous
- Identification (anti-solvent, solvent CHCl3, anti-solvent 2-MeTHF 10 mL, NB 6004273-06-A27): Type A
- Identification (anti-solvent, solvent CHCl3, anti-solvent ACN 10 mL, NB 6004273-06-A30): Type A
- Identification (anti-solvent, solvent CHCl3, anti-solvent Acetone 10 mL, NB 6004273-06-A22): Type A
- Identification (anti-solvent, solvent CHCl3, anti-solvent CPME 10 mL, NB 6004273-06-A42): Type A
- Identification (anti-solvent, solvent CHCl3, anti-solvent Cyclohexane 10 mL, NB 6004273-06-A35): Type A
- Identification (anti-solvent, solvent CHCl3, anti-solvent DCM 10 mL, NB 6004273-06-A31): Type A
- Identification (anti-solvent, solvent CHCl3, anti-solvent EtOAc 10 mL, NB 6004273-06-A24): Type A
- Identification (anti-solvent, solvent CHCl3, anti-solvent Ethanol 10 mL, NB 6004273-06-A20): Type A
- Identification (anti-solvent, solvent CHCl3, anti-solvent Ethyl formate 10 mL, NB 6004273-06-A40): Type A
- Identification (anti-solvent, solvent CHCl3, anti-solvent IPA 10 mL, NB 6004273-06-A21): Type A
- Identification (anti-solvent, solvent CHCl3, anti-solvent MEK 10 mL, NB 6004273-06-A36): Type A
- Identification (anti-solvent, solvent CHCl3, anti-solvent MIBK 10 mL, NB 6004273-06-A23): Type A
- Identification (anti-solvent, solvent CHCl3, anti-solvent MTBE 10 mL, NB 6004273-06-A29): Type A
- Identification (anti-solvent, solvent CHCl3, anti-solvent MeOAc 10 mL, NB 6004273-06-A34): Type A
- Identification (anti-solvent, solvent CHCl3, anti-solvent THF 10 mL, NB 6004273-06-A26): Type A
- Identification (anti-solvent, solvent CHCl3, anti-solvent Toluene 10 mL, NB 6004273-06-A32): Type A
- Identification (anti-solvent, solvent CHCl3, anti-solvent iBuOAc 10 mL, NB 6004273-06-A41): Type A
- Identification (anti-solvent, solvent CHCl3, anti-solvent iPrOAc 10 mL, NB 6004273-06-A25): Type A
- Identification (anti-solvent, solvent CHCl3, anti-solvent n-Heptane 10 mL, NB 6004273-06-A33): Type A
- Identification (anti-solvent, solvent CHCl3, anti-solvent n-Propanol 10 mL, NB 6004273-06-A38): Type A
- Identification (anti-solvent, solvent CHCl3, anti-solvent n-Propyl acetate 10 mL, NB 6004273-06-A39): Type A
- Identification (anti-solvent, solvent CHCl3, anti-solvent t-Butanol 10 mL, NB 6004273-06-A37): Type A
- Identification (anti-solvent, solvent DMA, anti-solvent t-Butanol 20 mL, NB 6004273-06-A97): Type M
- Identification (anti-solvent, solvent DMF, anti-solvent EtOAc 10 mL, NB 6004273-06-A47): Type A
- Identification (anti-solvent, solvent DMF, anti-solvent EtOH 20 mL, NB 6004273-06-A43): Amorphous
- Identification (anti-solvent, solvent DMF, anti-solvent IPA 10 mL, NB 6004273-06-A44): Type K
- Identification (anti-solvent, solvent DMF, anti-solvent MIBK 10 mL, NB 6004273-06-A46): Amorphous
- Identification (anti-solvent, solvent DMF, anti-solvent MTBE 10 mL, NB 6004273-06-A52): Type A
- Identification (anti-solvent, solvent DMF, anti-solvent Toluene 10 mL, NB 6004273-06-A56): Type M
- Identification (anti-solvent, solvent DMF, anti-solvent n-Propyl acetate 10 mL, NB 6004273-06-A61): Type A
- Identification (anti-solvent, solvent DMSO, anti-solvent 2-MeTHF 10 mL, NB 6004273-06-A8): Amorphous
- Identification (anti-solvent, solvent DMSO, anti-solvent ACN 20 mL, NB 6004273-06-A11): Type C
- Identification (anti-solvent, solvent DMSO, anti-solvent Acetone 10 mL, NB 6004273-06-A3): Type K
- Identification (anti-solvent, solvent DMSO, anti-solvent CHCl3 20 mL, NB 6004273-06-A13): Type K
- Identification (anti-solvent, solvent DMSO, anti-solvent EtOH 20 mL, NB 6004273-06-A1): Type K
- Identification (anti-solvent, solvent DMSO, anti-solvent MIBK 10 mL, NB 6004273-06-A4): Type K
- Identification (anti-solvent, solvent DMSO, anti-solvent MTBE 20 mL, NB 6004273-06-A10): Amorphous
- Identification (anti-solvent, solvent DMSO, anti-solvent Toluene 10 mL, NB 6004273-06-A14): Amorphous
- Identification (anti-solvent, solvent DMSO, anti-solvent n-Propanol 10 mL, NB 6004273-06-A18): Type K
- Identification (anti-solvent, solvent DMSO, anti-solvent n-Propyl acetate 10 mL, NB 6004273-06-A19): Type K
- Identification (anti-solvent, solvent DMSO, anti-solvent t-Butanol 10 mL, NB 6004273-06-A17): Type K
- Identification (anti-solvent, solvent NMP, anti-solvent 1,4-Dioxane 20 mL, NB 6004273-06-A70): Type A
- Identification (anti-solvent, solvent NMP, anti-solvent MEK 20 mL, NB 6004273-06-A77): Amorphous
- Observations (Anti-solvent addition, DMA 20 mL, 5 mg/mL, anti-solvent t-BuOH 200 mL, Desired Type M, NB 6004273-10-M): Amorphous
- Observations (Anti-solvent addition, DMF 20 mL, 5 mg/mL, anti-solvent Toluene 300 mL, Desired Type M, NB 6004273-10-M1): Amorphous
- Observations (Anti-solvent addition, DMF 20 mL, 5 mg/mL, anti-solvent n-propanol 200 mL, Desired Type L, NB 6004273-10-L): Amorphous
- Observations (Anti-solvent addition, DMSO 10 mL, 60 mg/mL, anti-solvent MIBK 200 mL, Desired Type K, NB 6004273-10-K): Amorphous
- Observations (Slurry at 50° C., DMF 0.2 mL, 576 mg/mL, Desired Type G, NB 6004273-10-G): Type F
- Observations (Slurry at 100° C. (for 2 days), DMF 0.2 mL, 595 mg/mL, Desired Type G, NB 6004273-10-F-100C): Type F
- Observations (Slurry at 150° C. (for 5 d), DMF 0.2 mL, 595 mg/mL, Desired Type G, NB 6004273-10-F-150C): Decomposition
- Observations (Slurry at ambient temperature, DMA 0.2 mL, 576 mg/mL, Desired Type E, NB 6004273-10-E): Type E
- Observations (Slurry at ambient temperature, DMF 0.2 mL, 595 mg/mL, Desired Type F, NB 6004273-10-F): Type A
- Observations (Slurry at ambient temperature, MeCN 0.2 mL, 545 mg/mL, Desired Type C, NB 6004273-10-C): Type C
- Observations (Slurry at ambient temperature, MeOH 0.2 mL, 480 mg/mL, Desired Type B, NB 6004273-10-B): Type N
- Observations (Slurry at ambient temperature, NMP 0.2 mL, 550 mg/mL, Desired Type D, NB 6004273-10-D): Amorphous
